Results published in ChEMBL document CHEMBL1152438, “Design, synthesis, and structure-activity relationships of aminopyridine N-oxides, a novel scaffold for the potent and selective inhibition of p38 mitogen activated protein kinase” (J Med Chem, 2009).
≈ marks a conversion by molar mass, not a printed value.

What was measured:
[1] = Solubility at pH 9.0; type: physicochemical; details: buffer
[2] = Solubility at pH 7.4; type: physicochemical; details: buffer
[3] = Solubility at pH 0.1; type: physicochemical; details: buffer
[4] = Cmax in rat at 10 mg/kg, po; type: ADME, organism-based; design: dose 10 mg/kg, route oral; details: in vivo
[5] = Tmax in rat at 10 mg/kg, po; type: ADME, organism-based; design: dose 10 mg/kg, route oral; details: in vivo
[6] = AUC (0 to 6 hrs) in rat at 10 mg/kg, po; type: ADME, organism-based; design: time < 6 hr, dose 10 mg/kg, route oral; details: plasma
[7] = Oral bioavailability in rat at 10 mg/kg; type: ADME, organism-based; details: in vivo
[8] = Volume of distribution at steady state in rat at 0.5 mg/kg, iv; type: ADME, organism-based; design: dose 0.5 mg/kg, route intravenous; details: in vivo, read-out: Vdss
[9] = Half life in rat at 0.5 mg/kg, iv; type: ADME, organism-based; design: dose 0.5 mg/kg, route intravenous; details: in vivo
[10] = Clearance in rat at 0.5 mg/kg, iv; type: ADME, organism-based; design: dose 0.5 mg/kg, route intravenous; details: in vivo
[11] = Clearance in rat at 1 mg/kg, iv; type: ADME, organism-based; design: dose 1 mg/kg, route intravenous; details: in vivo
[12] = Half life in rat at 1 mg/kg, iv; type: ADME, organism-based; design: dose 1 mg/kg, route intravenous; details: in vivo
[13] = Volume of distribution at steady state in rat at 1 mg/kg, iv; type: ADME, organism-based; design: dose 1 mg/kg, route intravenous; details: in vivo, read-out: Vdss

SMILES | solubility [1] [µg/mL] | solubility [2] [µg/mL] | solubility [3] [µg/mL] | further results
Nc1c(C(=O)c2ccc(F)cc2F)cc[n+]([O-])c1-c1c(F)cccc1F | 2 (≈ 5.52 µM) | 4 (≈ 11 µM) | – | –
Cc1ccccc1-c1c(N)c(C(=O)c2ccc(F)cc2F)cc[n+]1[O-] | 74 (≈ 217 µM) | 63 (≈ 185 µM) | 110 (≈ 323 µM) | Cmax [4]: 4.7 µM; Tmax [5]: 0.75 h; AUC(0-t) at 6 h [6]: 22.2 µM·h; bioavailability [7]: 75%; Vd [8]: 2.3 L/kg; half-life [9]: 1.6 h; clearance [10]: 16.7 mL/min/kg
Nc1c(C(=O)c2ccc(F)cc2F)cc[n+]([O-])c1-c1ccccc1Cl | 39 (≈ 108 µM) | 59 (≈ 164 µM) | 66 (≈ 183 µM) | clearance [11]: 1.7 mL/min/kg; Cmax [4]: 11.9 µM; Tmax [5]: 3.5 h; AUC(0-t) at 6 h [6]: 54.4 µM·h; bioavailability [7]: 23%; half-life [12]: 14.8 h; Vd [13]: 1.8 L/kg
COCCNC(=O)c1ccc(-c2c(N)c(C(=O)c3ccc(F)cc3F)cc[n+]2[O-])c(C)c1 | 49 (≈ 111 µM) | 46 (≈ 104 µM) | 54 (≈ 122 µM) | –

Second part, led by results:

solubility [1] [µg/mL] | solubility [2] [µg/mL] | solubility [3] [µg/mL] | SMILES | further results
89 (≈ 215 µM) | 67 (≈ 162 µM) | 24 (≈ 57.9 µM) | COCCOc1ccc(-c2c(N)c(C(=O)c3ccc(F)cc3F)cc[n+]2[O-])c(C)c1 | –
– | 37 (≈ 104 µM) | 44 (≈ 123 µM) | Cc1cc(O)ccc1-c1c(N)c(C(=O)c2ccc(F)cc2F)cc[n+]1[O-] | –
70 (≈ 198 µM) | 69 (≈ 195 µM) | 40 (≈ 113 µM) | Cc1cccc(C)c1-c1c(N)c(C(=O)c2ccc(F)cc2F)cc[n+]1[O-] | –
– | 51 (≈ 109 µM) | > 1000 | Cc1cc(OCCN2CCOCC2)ccc1-c1c(N)c(C(=O)c2ccc(F)cc2F)cc[n+]1[O-] | –
> 1000 | > 1000 | 41 (≈ 107 µM) | Cc1cc(C(=O)O)ccc1-c1c(N)c(C(=O)c2ccc(F)cc2F)cc[n+]1[O-] | –
